Laboratory results reported in PMC5617480 (Oncotarget, 2017).
Each block holds one compound with its values, some of them ahead of it.

Legend:
ds26 = system: ds26; design: method as in earlier work; details: ref [1], cited from earlier work; for ctDNADC50/ds26DC50: FID selectivity ratio; for ds26DC50: FID
Hep-G2 cells = system: Hep-G2 cells; design: method as in earlier work; details: Hep-G2, 48 h; ref [1]; cited from earlier work
ctDNA = system: ctDNA; design: method as in earlier work; details: ref [1], cited from earlier work; for ctDNADC50/ctDNADC50: FID selectivity ratio; for ctDNADC50: FID
[1] = system: F21T (DNA, G4) GGGCTAGGGCTAGGGCTAGGG; assay: FRET melting; details: 100 mM K+; 10 mM Tris-HCl, pH 7.35; 2.0 μM compound, 1.0 μM DNA
BEL-7404 cells [2] = assay: Cell cycle analysis (PI flow cytometry); assay type: cell-based, human; details: BEL-7404, 10 μM, 48 h; untreated 24.76%
Protocol: (§1) Platinum(II)-based drugs were widely used in anticancer chemotherapies, therefore, we performed experiments to test the potency of chiral platinum(II) complexes 4–6 for inducing senescence and apoptosis in BEL-7404 cells. […] We next investigated the effect of complexes 4–6 on the induction of apoptosis. BEL-7404 cells were incubated with complexes 4 (10 and 20 μM), 5 (10 and 20 μM) and 6 (5, 10 and 20 μM) for 24 h, respectively, and then these cells staining with PI and Annexin-V-FITC were determined by flow cytometry (Figure 3A and Supplementary Figure 18). As shown in Figure 3A and Supplementary Figure 18, after treated of complexes 4–6 with 10 μM for 24 h, the percentage of apoptotic cells (including early-stage and late-stage, Q2+Q4) was 13.1%, 7.0% and 25.4%, respectively, whereas the normal cells was only 6.1%. We further investigated the ability of complexes 4–6 (5, 10 and 20 μM) to induce BEL-7404 cell cycle arrest (Figure 3B and Supplementary Figure 19). Cells were treated with complexes 4–6 at 10 μM for 48 h, the cell cycle arrest was determined by using flow cytometry. […]
(§2) Apoptosis analysis c-myc antibody, or anti-β-actin primary antibody and the Apoptosis was detected by flow cytometric analysis corresponding secondary antibody were used to detect of annexin V staining. […] Then, cells were incubated with annexin V-FITC and PI for 1.0 h at Staining for SA-β-Gal activity was carried out room temperature in the dark and immediately analyzed according to Moore and Chen reports. […] The data are presented as biparametric After the long-term incubation with complexes 4–6, the dot plots showing PI red fluorescence vs annexin V-FITC growth medium was aspirated and the BEL-7404 cells green fluorescence. were fixed in 2% formaldehyde/0.2% glutaraldehyde for 15.0 min at room temperature. […] Finally, the extraction, RT-PCR, and the selective binding to G4s by BEL-7404 cell cycle was determined with FACS Calibur complexes 4–6 was according to the our previous reported flow cytometer (BD) and analyzed using Cell Quest. […]

BEL-7404 cells [3] = assay: Apoptosis analysis (annexin V-FITC/PI flow cytometry); assay type: cell-based, human; details: BEL-7404, 10 μM, 24 h; untreated 6.1%
Protocol: as §1, §2

Pu27 G4 = assay: Fluorescence titration (Stern-Volmer quenching); assay type: binding; details: Pu27 G4-DNA, compound 20 μM, 100 mM K+
Protocol: We asked whether chiral platinum(II) complexes 4–6 have the ability to bind to G-quadruplex DNA. To address this, FRET assays, CD spectroscopy, G4-FID assays, and fluorescence titration analysis were performed. […] For G4-HTG21, the ^G4DC50 values of complexes 4–6 were 1.23, 1.26 and 0.99 μM, respectively; while, for G4-Pu27, the ^G4DC50 values were 1.01, 0.89, and 0.82 μM, respectively. In addition, the ^ctDNADC50/^G4DC50 ratio of the HTG21 and Pu27 G4s treated with complexes 4–6 was in the range of 50.54-90.65 and 71.56-110.67 folds, respectively. To further evaluate the binding ability of complexes 4–6 to Pu27 and HTG21G4s, CD spectroscopy and fluorescence titration analysis were performed. […] The quenching ability of complexes 4–6 to HTG21 and Pu27 G4 DNA fluorescence can be quantitatively estimated by their respective quenching constant (Kq), which was derived from the Stern-Volmer quenching equation. […] Finally, the selective binding of complexes 4–6 towards G4 DNA was analyzed by FRET-melting assays. […] In contrast, the ΔTm value for the F32T+H20M duplex DNA in the presence of complexes 4–6 was 1.18, 1.34, and 0.78 °C under the same conditions (Figure 4A). Altogether, our data indicated complexes 4–6, especially complex 6, is the best binder to G4 DNA, which caused DNA complex displaying the highest thermodynamic stability.
Supplementary Figure 26: Fluorescence emission spectra of compounds (20 μM) in 100 mM K+ solution in the absence and
presence of G-quadruplex Pu27 with 4 (A), 5 (B) and 6 (C), respectively. […]

Compound: cis-[PtCl2(R-(+)-FOA)] [complex 5]
- percentage of cells at S phase (BEL-7404 cells [2]): 32.33%
- percentage of apoptotic cells (early-stage and late-stage, Q2+Q4) (BEL-7404 cells [3]): 7.0%
- Extent of quenching (%) (Pu27 G4): 30.06%
- Kq (quenching constant, Stern-Volmer) (Pu27 G4): 8.80×10^4 L·mol–1

Compound: cis-[PtCl2(S-(–)-FOA)] [complex 6]
- percentage of cells at S phase (BEL-7404 cells [2]): 38.61%
- percentage of apoptotic cells (early-stage and late-stage, Q2+Q4) (BEL-7404 cells [3]): 25.4%
- Extent of quenching (%) (Pu27 G4): 40.31%
- Kq (quenching constant, Stern-Volmer) (Pu27 G4): 1.38×10^5 L·mol–1

Compound: cis-[PtCl2(R/S-(±)-FOA)] [complex 4]
- percentage of cells at S phase (BEL-7404 cells [2]): 37.59%
- percentage of apoptotic cells (early-stage and late-stage, Q2+Q4) (BEL-7404 cells [3]): 13.1%
- Extent of quenching (%) (Pu27 G4): 32.54%
- Kq (quenching constant, Stern-Volmer) (Pu27 G4): 1.02×10^5 L·mol–1

The next lines start with results.

- ΔTm [1]: 13.19 °C
Compound: O=C(NCC(O)CO)c1cnc2c3c(cccc13)-c1ccccc1C2=O.[Cl-].[Cl-].[Pt+2] (racemic) [ligand 1, R/S-(±)-FOA]
- ctDNADC50/ds26DC50 (ds26): 5.31
- ds26DC50 (ds26): 12.05 µM
- IC50 (Hep-G2 cells): 32.9 ± 0.5 µM
- ctDNADC50/ctDNADC50 (ctDNA): 1.00
- ctDNADC50 (ctDNA): 63.96 µM

- ΔTm [1]: 12.95 °C
Compound: O=C(NC[C@@H](O)CO)c1cnc2c3c(cccc13)-c1ccccc1C2=O.[Cl-].[Cl-].[Pt+2] [ligand 2, R-(+)-FOA]
- ctDNADC50/ds26DC50 (ds26): 2.77
- ds26DC50 (ds26): 14.41 µM
- IC50 (Hep-G2 cells): 38.9 ± 1.3 µM
- ctDNADC50/ctDNADC50 (ctDNA): 1.00
- ctDNADC50 (ctDNA): 39.98 µM

- ΔTm [1]: 20.07 °C
Compound: O=C(NC[C@H](O)CO)c1cnc2c3c(cccc13)-c1ccccc1C2=O.[Cl-].[Cl-].[Pt+2] [ligand 3, S-(–)-FOA]
- ctDNADC50/ds26DC50 (ds26): 11.40
- ds26DC50 (ds26): 7.88 µM
- IC50 (Hep-G2 cells): 24.9 ± 0.4 µM
- ctDNADC50/ctDNADC50 (ctDNA): 1.00
- ctDNADC50 (ctDNA): 89.82 µM
